Measured values from PMC3185582 (Viruses, 2010).
Like-named read-outs stand apart in the source and are kept apart here.

Columns and labels:
cowpox virus = type: cell-based
vaccinia virus [1] = type: cell-based
in vivo [2] = settings: BALB/c, mouse
unrelated viruses = settings: read-out: EC50 for inhibition of viral replication; cited from earlier work
[3] = mouse, in vivo
in vivo [4] = settings: BALB/c, mouse, 30 mg/kg
CYP2C8 = CYP2C8 (Homo sapiens, UniProt P10632); test: in vitro
[5] = test system: selected cell lines from mouse, rabbit, monkey, and humans; settings: cited from earlier work
CYP2E1 = CYP2E1 (Homo sapiens, UniProt P05181); test: in vitro
CYP2C19 = CYP2C19 (Homo sapiens, UniProt P33261); test: in vitro
poxvirus = settings: mouse, in vivo; cited from earlier work
[6] = not given; remark: listed apart in the source
[7] = for increase in AUC values (accumulation): 28 day repeat dose study
vaccinia virus [8] = settings: CPE assay; read-out: EC50 for inhibition of viral replication; cited from earlier work
[9] = rat, mouse and dog microsomes
[10] = test system: variola virus clinical isolates; settings: cited from earlier work
in vivo [11] = settings: cynomolgus monkey
p37 with Rab9 and TIP47 = settings: cited from earlier work
Vaccinia [12] = settings: mouse, in vivo, po, 100 mg/kg
orthopoxviruses = test system: orthopoxviruses; design: species or system mice; settings: mouse, in vivo
cytochrome P450 (CYP) = settings: 10 μM (3,700 ng/mL)
monkeypox virus [13] = test system: monkeypox virus; design: species or system prairie dogs; settings: dog, in vivo
[14] = methanol, ethanol and acetonitrile
monkeypox virus [15] = test system: monkeypox virus; design: species or system cynomolgus macaques; settings: cynomolgus monkey, in vivo
vero and BSC40 cells = settings: ST-246 treatment, 50 uM; unpublished work [21]
[16] = 300 mg/kg, repeat dose studies
[17] = not given; remark: listed apart in the source
variola virus [18] = test system: variola virus; design: species or system cynomolgus macaques; settings: cynomolgus monkey, in vivo
[19] = 12 daily doses of 300 mg/kg
[20] = single oral dose, tidal volume
in vivo [21] = settings: dog
CYP2B6 = CYP2B6 (Homo sapiens, UniProt P20813); test: in vitro
[22] = test system: vaccinia virus in BSC-40 cell monolayers; settings: 10 μM, 5 pfu/cell; ref Chen et al. [48]; cited from earlier work
[23] = not given; remark: listed apart in the source
[24] = test system: monkeypox virus clinical isolates; settings: cited from earlier work
[25] = monkey or human microsomes
in vivo [26] = settings: both, cynomolgus, monkey
in vivo [27] = settings: Sprague-Dawley, rat, po, 30 mg/kg
[28] = test system: vaccinia virus in BSC-40 cell monolayers; type: cell-based
ectromelia virus = settings: read-out: EC50 for inhibition of viral replication; cited from earlier work
monkeypox virus [29] = settings: cynomolgus monkey, in vivo, cited from earlier work
[30] = mouse, in vivo; remark: listed apart in the source
Ectromelia = settings: mouse, in vivo, cited from earlier work
[31] = not given; remark: listed apart in the source
Cowpox = settings: mouse, in vivo, cited from earlier work
[32] = top dose 2000 mg/kg
Monkeypox = settings: in vivo, cited from earlier work
Vaccinia [33] = settings: mouse, in vivo, cited from earlier work
CYP1A2 = CYP1A2 (Homo sapiens, UniProt P05177); test: in vitro
variola virus [34] = settings: cynomolgus monkey, in vivo, cited from earlier work
Rabbitpox = settings: rabbit, in vivo, cited from earlier work
[35] = by 96 hours after oral administration

Sequence of CYP2E1 (P05181 whole entry): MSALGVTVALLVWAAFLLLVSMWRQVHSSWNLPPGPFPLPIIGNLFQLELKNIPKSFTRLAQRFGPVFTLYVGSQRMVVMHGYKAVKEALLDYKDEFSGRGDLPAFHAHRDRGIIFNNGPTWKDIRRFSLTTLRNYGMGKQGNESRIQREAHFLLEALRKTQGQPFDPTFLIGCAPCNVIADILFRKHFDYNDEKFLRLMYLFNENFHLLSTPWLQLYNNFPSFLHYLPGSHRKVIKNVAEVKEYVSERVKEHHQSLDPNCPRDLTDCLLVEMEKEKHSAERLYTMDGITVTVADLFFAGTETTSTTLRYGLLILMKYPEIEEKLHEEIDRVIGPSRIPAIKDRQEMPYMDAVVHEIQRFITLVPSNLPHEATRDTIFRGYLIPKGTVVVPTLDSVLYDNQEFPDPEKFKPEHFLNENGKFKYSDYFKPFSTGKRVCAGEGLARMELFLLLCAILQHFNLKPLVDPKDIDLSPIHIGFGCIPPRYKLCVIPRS
Sequence of CYP2C8 (P10632 whole entry): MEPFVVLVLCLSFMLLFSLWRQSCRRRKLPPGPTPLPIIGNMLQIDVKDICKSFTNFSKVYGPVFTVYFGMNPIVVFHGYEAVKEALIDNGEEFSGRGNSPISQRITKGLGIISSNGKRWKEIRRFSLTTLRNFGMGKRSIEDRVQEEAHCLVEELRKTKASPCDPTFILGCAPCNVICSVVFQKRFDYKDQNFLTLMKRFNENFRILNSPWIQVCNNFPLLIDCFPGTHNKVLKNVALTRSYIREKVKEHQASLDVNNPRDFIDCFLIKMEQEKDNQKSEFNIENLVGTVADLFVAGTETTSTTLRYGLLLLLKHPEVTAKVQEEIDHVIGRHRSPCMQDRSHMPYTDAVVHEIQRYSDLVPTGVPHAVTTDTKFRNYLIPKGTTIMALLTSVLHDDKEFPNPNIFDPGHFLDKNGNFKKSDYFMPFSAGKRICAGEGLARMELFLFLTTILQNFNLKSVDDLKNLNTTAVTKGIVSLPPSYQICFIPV
Sequence of CYP2B6 (P20813 whole entry): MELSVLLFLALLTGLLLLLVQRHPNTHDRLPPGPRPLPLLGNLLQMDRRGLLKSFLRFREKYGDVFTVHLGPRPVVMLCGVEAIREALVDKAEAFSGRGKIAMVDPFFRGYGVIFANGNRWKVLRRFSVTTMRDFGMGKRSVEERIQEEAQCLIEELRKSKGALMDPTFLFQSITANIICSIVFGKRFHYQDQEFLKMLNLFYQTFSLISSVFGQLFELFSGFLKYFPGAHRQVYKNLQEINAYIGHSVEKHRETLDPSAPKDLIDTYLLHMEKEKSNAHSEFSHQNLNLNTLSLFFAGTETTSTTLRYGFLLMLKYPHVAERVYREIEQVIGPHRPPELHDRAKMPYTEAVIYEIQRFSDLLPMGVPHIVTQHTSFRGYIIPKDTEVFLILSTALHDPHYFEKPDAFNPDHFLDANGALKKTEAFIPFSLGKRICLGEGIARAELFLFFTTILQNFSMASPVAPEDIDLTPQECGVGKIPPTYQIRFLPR
Sequence of CYP1A2 (P05177 whole entry): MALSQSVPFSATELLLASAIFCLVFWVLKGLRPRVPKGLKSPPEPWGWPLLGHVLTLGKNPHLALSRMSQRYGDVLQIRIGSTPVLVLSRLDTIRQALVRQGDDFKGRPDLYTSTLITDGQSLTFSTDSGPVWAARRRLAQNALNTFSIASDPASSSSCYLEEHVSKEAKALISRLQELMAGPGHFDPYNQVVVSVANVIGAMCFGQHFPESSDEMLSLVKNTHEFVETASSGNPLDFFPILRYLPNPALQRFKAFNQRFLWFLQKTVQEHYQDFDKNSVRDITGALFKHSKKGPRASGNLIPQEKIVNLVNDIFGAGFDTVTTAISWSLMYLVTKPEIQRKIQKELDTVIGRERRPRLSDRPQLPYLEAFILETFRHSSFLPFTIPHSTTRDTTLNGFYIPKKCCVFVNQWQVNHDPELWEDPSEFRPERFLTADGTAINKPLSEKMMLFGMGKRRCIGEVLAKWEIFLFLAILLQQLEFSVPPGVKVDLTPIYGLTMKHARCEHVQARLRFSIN
Sequence of CYP2C19 (P33261 whole entry): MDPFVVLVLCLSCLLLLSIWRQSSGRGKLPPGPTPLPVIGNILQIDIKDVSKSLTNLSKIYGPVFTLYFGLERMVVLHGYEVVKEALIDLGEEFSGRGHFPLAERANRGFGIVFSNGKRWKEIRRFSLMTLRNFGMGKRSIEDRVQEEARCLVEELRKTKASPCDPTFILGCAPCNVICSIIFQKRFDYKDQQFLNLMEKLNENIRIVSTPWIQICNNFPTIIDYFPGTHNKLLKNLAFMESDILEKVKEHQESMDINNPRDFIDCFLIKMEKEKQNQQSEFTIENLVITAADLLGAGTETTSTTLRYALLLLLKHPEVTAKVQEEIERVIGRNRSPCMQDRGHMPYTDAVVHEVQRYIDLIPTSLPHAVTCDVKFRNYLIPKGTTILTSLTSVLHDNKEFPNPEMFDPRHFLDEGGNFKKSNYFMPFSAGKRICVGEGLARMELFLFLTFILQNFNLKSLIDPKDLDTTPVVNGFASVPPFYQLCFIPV

Compound: O=C(NN1C(=O)C2C3C=CC(C4CC34)C2C1=O)c1ccc([N+](=O)[O-])cc1 (centres unmarked) [4-nitrophenyl]
- fold more potent than the 4-dimethylaminophenyl analog (cowpox virus): 100 fold
- fold more potent than the 4-dimethylaminophenyl analog (vaccinia virus [1]): 100 fold

Compound: O=C(NN1C(=O)[C@@H]2[C@@H]3C=C[C@@H]([C@H]4C[C@@H]34)[C@@H]2C1=O)c1ccc(C(F)(F)F)cc1 [ST-246, Tecovirimat]
- NOAEL at 3 months (in vivo [2]; 1000 mg/kg): 1000 mg/kg
- MTD (in vivo [2]; 2000 mg/kg): 2000 mg/kg
- MTD at 28 days (in vivo [2]; 2000 mg/kg): 2000 mg/kg
- NOAEL at 28 days (in vivo [2]; 2000 mg/kg): 2000 mg/kg
- EC50 (unrelated viruses): > 40000 nM
- fertility, fetal resorptions, fetal abnormalities or toxicity [3]: no evidence
- bioavailability (in vivo [4]): ~40%
- inhibition at 300 µM (CYP2C8): < 50%
- CC50 [5]: > 50000 nM
- inhibition at 300 µM (CYP2E1): < 50%
- inhibition at 300 µM (CYP2C19): < 50%
- protection from lethal infection (poxvirus): protect
- time to nearly complete elimination of radioactivity (after oral administration): ≤ 96 h
- radioactivity eliminated in the urine [35]: 24%
- radioactivity eliminated through the feces [35]: approximately 72%
- plasma protein binding [6]: moderate to high
- increase in AUC values (accumulation) ([7]; 1000 mg/kg): approximately 25%
- increase in AUC values (accumulation) ([7]; 2000 mg/kg): approximately 50%
- terminal elimination half-life ([7]; once a day dosing): approximately four
- EC50 (vaccinia virus [8]): 10 nM
- metabolism by cytochrome P450 isozymes (cytochrome P450 isozymes): not metabolized to any significant degree
- cleavage liberating 4-trifluoromethylbenzoic acid [9]: small amounts of ST-246 were cleaved
- genotoxicity (mammalian cell): not genotoxic
- inhibition of clinical isolates in cell culture [10]: inhibited
- clearance (in vivo [11]; both, iv, 1 mg/kg): ~18.3 mL/min/kg
- bioavailability (in vivo [11]; fasted): ~25%
- bioavailability (in vivo [11]; fed state): ~50%
- interaction of p37 with Rab9 and TIP47 (p37 with Rab9 and TIP47): blocks
- protection from systemic disease (Vaccinia [12]): protects mice from systemic disease
- latest treatment initiation for full protection (orthopoxviruses): ≤ 72 hours post-infection
- optimal dosing period (orthopoxviruses; 100 mg/kg): greater than seven days
- optimal once per day oral dose for protective efficacy (orthopoxviruses; po): 100 mg/kg
- CYP induction (CYP 2C19): induction was observed
- cytochrome P450 (CYP) induction (cytochrome P450 (CYP)): no significant
- protection from death (monkeypox virus [13]): 100%
- solubility in organic solvents [14]: very soluble
- protection from lethal infection (monkeypox virus [15]): protected animals from lethal infection
- protection from lethal infection, latest administration (monkeypox virus [15]): as late as five days post-inoculation
- growth of cells (vero and BSC40 cells): not affected
- QTc [16]: no prolongation
- radiolabel in the milk ([17]; nursing dams): < 1%
- radiolabel in the placenta ([17]; pregnant mice): only very low levels
- lesion numbers compared to placebo-treated animals (variola virus [18]): reduced lesion numbers
- CYP induction (CYP 2B6): induction was observed
- electroencephalograms and seizure thresholds [19]: no evidence of altered electroencephalograms or lowered seizure thresholds
- no observable effect level (NOEL) [20]: 2000 mg/kg
- MTD (in vivo [21]): 30 mg/kg
- inhibition at 300 µM (CYP2B6): < 50%
- Caco-2 membrane permeability (Caco-2): good
- extracellular virus (CEV and EEV) formation [22]: inhibits
- clinical observations ([23]; 300 mg/kg): ataxia was observed four hours post dose in one female NHP
- NOEL ([23]; 3 Month study): 300 mg/kg
- NOEL ([23]; 28 Day repeat dose study): 300 mg/kg
- multiple-dose NOEL ([23]; monkey): 300 mg/kg/day
- clinical observations ([23]; single dose 1000 mg/kg): This was also observed
- clinical observations ([23]; single oral dose 2000 mg/kg, male and female): decreased activity and ataxia
- inhibition of clinical isolates in cell culture [24]: inhibited
- cleavage metabolites [25]: not seen
- NOAEL (in vivo [26]): 2000 mg/kg
- genotoxicity (bacterial): not genotoxic
- bioavailability (in vivo [27]; female): 33%
- bioavailability (in vivo [27]; male): 90%
- plaque formation [28]: inhibits
- EC50 (ectromelia virus): 70 nM
- Optimal oral dose mg/kg, s.i.d. (monkeypox virus [29]; po): 3 mg/kg
- Time of treatment (monkeypox virus [29]): 96h.p.i. (100%)
- Time of treatment (% efficacy) (monkeypox virus [29]): 96h.p.i. (100%)
- protection from death (monkeypox virus [29]): 100%
- protection from lethal infection (monkeypox virus [29]): 100%
- chromosomal damage or bone marrow toxicity [30]: did not cause
- Optimal oral dose mg/kg, s.i.d. (Ectromelia; po): 100 mg/kg
- Optimal dose duration (Ectromelia): >5 days (100%)
- Optimal dose duration (% efficacy) (Ectromelia): >5 days (100%)
- Time of treatment (Ectromelia): 72 h.p.i. (100%)
- Time of treatment (% efficacy) (Ectromelia): 72 h.p.i. (100%)
- maternal toxicity ([31]; Segment II study, highest dose 100 mg/kg): some maternal toxicity
- fertility, fetal resorptions, fetal abnormalities or toxicity ([31]; rabbit, in vivo): no evidence
- Optimal oral dose mg/kg, s.i.d. (Cowpox; po): 100 mg/kg
- Optimal dose duration (Cowpox): >7 days (93%]
- Optimal dose duration (% efficacy) (Cowpox): >7 days (93%]
- Time of treatment (Cowpox): 48 h.p.i. (93%)
- Time of treatment (% efficacy) (Cowpox): 48 h.p.i. (93%)
- behavioral or other functional changes [32]: did not elicit any
- Optimal oral dose mg/kg, s.i.d. (Monkeypox; po): 100 mg/kg
- Time of treatment (Monkeypox): 72 h.p.i. (100%)
- Time of treatment (% efficacy) (Monkeypox): 72 h.p.i. (100%)
- Optimal oral dose mg/kg, s.i.d. (Vaccinia [33]; po): 100 mg/kg
- Optimal dose duration (Vaccinia [33]): >5 days (100%]
- Optimal dose duration (% efficacy) (Vaccinia [33]): >5 days (100%]
- inhibition at 300 µM (CYP1A2): < 50%
- Optimal oral dose mg/kg, s.i.d. (variola virus [34]; po): 10 mg/kg
- Time of treatment (variola virus [34]): 24 h.p.i. (100%)
- Time of treatment (% efficacy) (variola virus [34]): 24 h.p.i. (100%)
- Optimal oral dose mg/kg, s.i.d. (Rabbitpox; po): 40 mg/kg
- Time of treatment (Rabbitpox): 48 h.p.i. (100%)
- Time of treatment (% efficacy) (Rabbitpox): 48 h.p.i. (100%)
